In patent US7553642B2, “Branched neutral amino acid transporters acting as single molecule” (Human Cell Systems, Inc., priority 2003, dated 2009):
“Also recorded” adds a separate entry of the source. Like-named read-outs stand apart in the source and are kept apart here.

How the values were obtained:
Type in all cases: cell-based
human LAT3 [1] = target: T1, human LAT3 (Homo sapiens, UniProt O75387); test: Inhibition of 14C-leucine uptake by Xenopus oocytes injected with human LAT3 cRNA
T1 construct: An expression plasmid vector pSPORT1 containing cDNA of human LAT3 was cleaved by a restriction enzyme NotI, and cRNA; expressed in transfected cells; host or cells: Xenopus laevis oocytes injected with cRNA
T1 sequence (O75387 1-559): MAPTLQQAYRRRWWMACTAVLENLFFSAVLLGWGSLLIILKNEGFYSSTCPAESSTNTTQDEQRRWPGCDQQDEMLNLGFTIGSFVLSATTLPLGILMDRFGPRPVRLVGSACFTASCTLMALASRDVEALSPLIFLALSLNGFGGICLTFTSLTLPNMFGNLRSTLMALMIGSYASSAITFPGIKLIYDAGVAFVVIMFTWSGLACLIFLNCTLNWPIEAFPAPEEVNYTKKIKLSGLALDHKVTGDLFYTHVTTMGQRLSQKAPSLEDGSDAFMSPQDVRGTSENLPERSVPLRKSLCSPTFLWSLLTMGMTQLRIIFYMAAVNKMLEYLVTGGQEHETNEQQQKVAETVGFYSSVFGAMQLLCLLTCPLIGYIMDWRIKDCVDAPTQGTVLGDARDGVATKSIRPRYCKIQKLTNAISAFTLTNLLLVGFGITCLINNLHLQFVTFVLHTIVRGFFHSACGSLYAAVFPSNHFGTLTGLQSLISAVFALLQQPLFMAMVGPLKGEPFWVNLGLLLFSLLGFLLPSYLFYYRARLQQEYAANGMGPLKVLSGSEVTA

mouse LAT4 [2] = target: T2, mouse LAT4 (Mus musculus, UniProt Q8CGA3, K402E/P237S); test: Inhibition of 14C-leucine uptake by oocytes injected with mouse LAT4 cRNA; details: 14C-leucine 100 μM, 10 mM unlabeled compound, Na+-free uptake solution, Xenopus oocytes
T2 construct: An expression plasmid vector pcDNA 3.1(+) containing cDNA of mouse LAT4 was cleaved by a restriction enzyme XbaI; expressed in transfected cells; host or cells: Xenopus laevis oocytes injected with cRNA (from pcDNA3.1(+), IMAGE clone 2235970)
T2 sequence (Q8CGA3 whole entry P237S/K402E): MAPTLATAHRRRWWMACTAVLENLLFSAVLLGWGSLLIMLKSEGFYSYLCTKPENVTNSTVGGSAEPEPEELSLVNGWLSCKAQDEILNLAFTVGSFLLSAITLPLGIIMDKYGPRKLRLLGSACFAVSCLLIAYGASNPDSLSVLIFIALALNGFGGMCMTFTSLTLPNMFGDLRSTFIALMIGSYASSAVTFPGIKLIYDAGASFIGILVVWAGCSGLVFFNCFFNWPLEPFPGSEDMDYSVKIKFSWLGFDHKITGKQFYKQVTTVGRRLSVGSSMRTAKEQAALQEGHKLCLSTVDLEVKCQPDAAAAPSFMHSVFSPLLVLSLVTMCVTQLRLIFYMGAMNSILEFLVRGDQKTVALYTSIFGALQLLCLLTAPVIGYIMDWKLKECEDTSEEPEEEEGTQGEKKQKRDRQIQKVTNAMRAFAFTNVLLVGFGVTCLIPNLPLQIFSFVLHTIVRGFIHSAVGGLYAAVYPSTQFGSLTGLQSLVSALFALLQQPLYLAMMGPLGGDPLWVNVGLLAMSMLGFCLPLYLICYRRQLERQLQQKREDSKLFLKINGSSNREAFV
Protocol: In this regard, uptake of ^14C-leucine (100 μM) into the oocytes was measured in the presence or the absence of 10 mM of various compounds (unlabeled) in the Na^+-free uptake solution.

human LAT3 [3] = target: T1, human LAT3; test: Uptake of radiolabeled amino acids by Xenopus oocytes injected with human LAT3 cRNA; details: 14C-labeled substrate in place of 14C-leucine, Na+-free uptake solution, 10 minutes
Protocol: The substrate uptake by the injected oocytes using leucine as a substrate was carried out according to the method described by Kanai et al. (Kanai and Hediger, Nature, Vol. 360, 467-471 (1992)), as follows. The oocytes was cultured for 30 minutes in the Na^+-free uptake solution (100 mM of choline chloride, 2 mM of potassium chloride, 1.8 mM of calcium chloride, 1 mM of magnesium chloride, 5 mM of HEPES, pH 7.4) using ^14C-leucine (100 μM) as a substrate, and uptake rate of the substrate was measured by counting radioactivity in the cell.
The oocytes was injected with 25 ng of human LAT3 gene cRNA to be expressed thereby, and cultured for 3 days.
The experiment of the leucine uptake was carried out as follows according to the above described method in Example 1 (1). That is, the oocytes injected with the cRNA of the human LAT3 gene or water as a control were cultured for 10 minutes in Na^+-free uptake solution containing ^14C-leucine (100 μM) (refer to Example 1 (1)), and measured uptake of radioactivity into the cells.
The leucine uptake was conducted at the leucin concentrations of 1, 3, 10, 30, 60, 100, 200, 400, 1000, 2000 and 3000 μM using the oocytes injected with cRNA of the human LAT3 gene according to the above-described method in Example 3 (1). […] In addition, it was clarified that the leucine transport mediated by LAT3 is composed of high affinity component and low affinity component (FIG. 6, inserted figure).
An uptake experiment of various amino acids and amino acid analogs was carried out using the oocytes injected with cRNA of the human LAT3 gene according to the above-described method in Example 3 (1), provided that various radiolabeled amino acids were utilized in place of the ^14C-leucine.

mouse LAT4 [4] = target: T2, mouse LAT4; test: Uptake of radiolabeled amino acids by Xenopus oocytes injected with mouse LAT4 cRNA; details: 14C-labeled substrate in place of 14C-leucine
Protocol: The oocytes was injected with 25 ng of cRNA of the mouse LAT4 gene to be expressed thereby, and cultured for 3 days.
An experiment of leucine uptake was carried out as follows according to the above-described method in Example 3 (1). That is, the oocytes injected with cRNA of the mouse LAT4 gene or water as a control were cultured for 10 minutes in the Na^+-free uptake solution containing […] (100 μM) (refer to Example 3 (1)), and measured the uptake of radioactivity into the cells.
The leucine uptake was conducted at the leucin concentrations of 0.01, 0.03, 0.1, 0.3, 1, 3 and 10 mM, using the oocytes injected with cRNA of the mouse LAT4 gene according to the above-described method in Example 3 (1). […] In addition, it was clarified that the leucine transport mediated by LAT4 is composed of a high affinity component and a low affinity component, just like the leucin uptake mediated by LAT3.
An uptake experiment of various amino acids and amino acid analogs was carried out using the oocytes injected with cRNA of the mouse LAT4 gene according to the above-described method in Example 3 (1). In this regard, in place of ^14C-leucine, various radiolabeled amino acids were utilized.

human LAT3 [5] = target: T1, human LAT3; test: Influence of N-ethylmaleimide on leucine uptake by oocytes expressing human LAT3; details: pretreatment with 5 mM for 15 minutes; 14C-L-leucine 100 μM, 10 minutes
Protocol: Each of the oocytes injected with cRNA of the human LAT3 gene, injected with cRNA of the human LAT3 gene and cRNA of 4F2hc gene, or injected with water as a control was cultured for 10 minutes in the Na^+-free uptake solution containing ^14C-L-leucine (100 μM) (refer to Example 3 (2)), and uptake of radioactivity into the oocytes was measured according to the method described in Example 3 (1). In this regard, influences of pretreatment with 5 mM of N-ethylmaleimide for 15 minutes, and the presence or absence of 5 mM of N-ethylmaleimide in the uptake solution on the ^14C-leucine uptake were investigated.

LAT1 = test: Influence of N-ethylmaleimide on leucine uptake mediated by LAT1; details: 5 mM; 14C-L-leucine 100 μM, 10 minutes
[6] = 14C-leucine 100 μM, 10 mM unlabeled compound, Na+-free uptake solution, 10 minutes, Xenopus oocytes

| Compound | inhibitory effect on the LAT3 mediated 14C-leucine uptake (human LAT3 [1]; [6]) | inhibitory effect on the LAT4 mediated 14C-leucine uptake (mouse LAT4 [2]) | other results |
| --- | --- | --- | --- |
| CC(C)CC(C)N (centres unmarked) [1,3-dimethyl-n-butylamine] | significant inhibitory activity | – | – |
| NC1(C(=O)O)CC2CCC1C2 (centres unmarked) [BCH, 2-aminobicyclo-(2,2,1)-heptane-2-carboxylic acid] | strong inhibition | strong inhibition | – |
| N[C@H](Cc1c[nH]cn1)C(=O)O [D-histidine] | – | relatively strong inhibitory effect | – |
| CSCC[C@@H](N)C(=O)O [D-methionine] | – | relatively strong inhibitory effect | – |
| CC(C)CCN [Isopentylamine, isopentylamine] | significant inhibitory activity | – | – |
| CSCC[C@H](N)C(=O)O [L-methionine] | – | strong cis-inhibitory effect | inhibitory effect on the LAT3 mediated 14C-leucine uptake (human LAT3 [1]): strong cis-inhibitory effect; uptake of radiolabeled substrate into oocytes expressing human LAT3 (human LAT3 [3]): small but significant uptake; uptake of radiolabeled substrate into oocytes expressing mouse LAT4 (mouse LAT4 [4]): a large amount of uptake |
| N[C@@H](Cc1ccccc1)C(=O)O [L-phenylalanine] | strong cis-inhibitory effect | strong cis-inhibitory effect | uptake of radiolabeled substrate into oocytes expressing human LAT3 (human LAT3 [3]): a large amount of uptake; uptake of radiolabeled substrate into oocytes expressing mouse LAT4 (mouse LAT4 [4]): a large amount of uptake |
| O=C(O)[C@@H]1CCCN1 [L-proline] | did not affect | did not affect | uptake of radiolabeled substrate into oocytes expressing human LAT3 (human LAT3 [3]): small but significant uptake |
| CCN1C(=O)C=CC1=O [N-ethylmaleimide] | – | – | effect on 14C-L-leucine uptake mediated by human LAT3 (human LAT3 [5]): completely abolished; also recorded: inhibited; effect on 14C-L-leucine uptake mediated by LAT1 (LAT1): did not affect |
| N=C(N)NCCC[C@H](N)C(=O)O [arginine] | did not affect | did not affect | – |
| N[C@@H](CCC(=O)O)C(=O)O [glutamic acid] | did not affect | did not affect | – |
| COc1ccc2c(c1)c(CC(=O)O)c(C)n2C(=O)c1ccc(Cl)cc1 [indomethacin] | strong inhibitory effect | – | – |
| CC(C)CN [isobutylamine] | significant inhibitory activity | – | – |
| NCCCC[C@H](N)C(=O)O [lysine] | did not affect | did not affect | – |
| C[C@@H]1Cc2c(Cl)cc(C(=O)N[C@@H](Cc3ccccc3)C(=O)O)c(O)c2C(=O)O1 [ochratoxin A] | strong inhibitory effect; also recorded: strongly inhibited | – | – |
| N[C@H](CO)Cc1ccccc1 [phenylalaninol, L-phenylalaninol] | relatively strong inhibitory effects; also recorded: strongly inhibited | – | – |
| NCCc1ccccc1 [phenylethylamine, 2-phenylethylamine] | significant inhibitory activity | – | – |
| CCCN(CCC)S(=O)(=O)c1ccc(C(=O)O)cc1 [probenecid] | weak but significant inhibitory effects | – | – |
| O=C(O)c1ccccc1O [salicylic acid] | weak but significant inhibitory effects | – | – |

Further lines, with some results ahead:

| inhibitory effect on the LAT3 mediated 14C-leucine uptake (human LAT3 [1]; [6]) | inhibitory effect on the LAT4 mediated 14C-leucine uptake (mouse LAT4 [2]) | Compound | other results |
| --- | --- | --- | --- |
| relatively strong inhibitory effect | relatively strong inhibitory effect | CC(C)C[C@@H](N)C(=O)O [D-leucine] | uptake of radiolabeled substrate into oocytes expressing human LAT3 (human LAT3 [3]): significant uptake; uptake of radiolabeled substrate into oocytes expressing mouse LAT4 (mouse LAT4 [4]): significant uptake |
| strong cis-inhibitory effect | strong cis-inhibitory effect | CC[C@H](C)[C@H](N)C(=O)O [L-isoleucine] | uptake of radiolabeled substrate into oocytes expressing human LAT3 (human LAT3 [3]): a large amount of uptake; uptake of radiolabeled substrate into oocytes expressing mouse LAT4 (mouse LAT4 [4]): a large amount of uptake |
| strong cis-inhibitory effect | strong cis-inhibitory effect | CC(C)[C@H](N)C(=O)O [L-valine] | uptake of radiolabeled substrate into oocytes expressing human LAT3 (human LAT3 [3]): a large amount of uptake; uptake of radiolabeled substrate into oocytes expressing mouse LAT4 (mouse LAT4 [4]): a large amount of uptake |
| significant inhibitory activity | – | CC(=O)N[C@@H](CC(C)C)C(=O)O [N-acetyl-leucine, N-acetyl-L-leucine] | – |
| did not affect | did not affect | N[C@@H](CC(=O)O)C(=O)O [aspartic acid] | – |
| significant inhibitory activity | – | COC(=O)[C@@H](N)CC(C)C [leucine methylester, L-leucine-methylester] | – |
| strongly inhibited | – | CC(C)C[C@H](N)CO [leucinol, L-leucinol] | – |
| relatively strong inhibitory effects | – | CC(C)[C@H](N)CO [valinol, L-valinol] | – |
